Tests used:
Settings in all cases: 72 h
[1] = tested on: Calu-3; experiment: drug sensitivity score (DSS) for viability; higher = more toxic; extreme values may be limits of the assay
[2] = tested on: U2OS; experiment: as above
[3] = tested on: Vero E6; experiment: as above
[4] = tested on: Caco-2; experiment: as above
[5] = tested on: Calu-3; experiment: cell viability relative to DMSO; higher = less toxic
[6] = tested on: U2OS; experiment: as above
[7] = tested on: Vero E6; experiment: as above
[8] = tested on: Caco-2; experiment: as above
[9] = tested on: Calu-3; experiment: relative viability EC50 (midpoint between 100% and the lowest measured viability); higher = less toxic
[10] = tested on: U2OS; experiment: as above
[11] = tested on: Vero E6; experiment: as above
[12] = tested on: Caco-2; experiment: as above
[13] = tested on: HepG2; experiment: drug sensitivity score (DSS) for viability; higher = more toxic; extreme values may be limits of the assay
[14] = tested on: HepG2; experiment: cell viability relative to DMSO; higher = less toxic
[15] = tested on: HepG2; experiment: relative viability EC50 (midpoint between 100% and the lowest measured viability); higher = less toxic

Row | SMILES | drug sensitivity score [1] | drug sensitivity score [2] | drug sensitivity score [3] | drug sensitivity score [4] | cell viability ([5]; 1 nM) [%] | cell viability ([5]; 10 nM) [%] | cell viability ([5]; 100 nM) [%] | cell viability ([5]; 1000 nM) [%] | cell viability ([5]; 10000 nM) [%] | cell viability ([6]; 1 nM) [%] | cell viability ([6]; 10 nM) [%] | cell viability ([6]; 100 nM) [%] | cell viability ([6]; 1000 nM) [%] | cell viability ([6]; 10000 nM) [%] | cell viability ([7]; 1 nM) [%] | cell viability ([7]; 10 nM) [%] | cell viability ([7]; 100 nM) [%] | cell viability ([7]; 1000 nM) [%] | cell viability ([7]; 10000 nM) [%] | cell viability ([8]; 1 nM) [%] | cell viability ([8]; 10 nM) [%] | cell viability ([8]; 100 nM) [%] | cell viability ([8]; 1000 nM) [%] | cell viability ([8]; 10000 nM) [%] | relative viability EC50 [9] [µM] | relative viability EC50 [10] [µM] | relative viability EC50 [11] [µM] | relative viability EC50 [12] [µM] | drug sensitivity score [13] | cell viability ([14]; 1 nM) [%] | cell viability ([14]; 10 nM) [%] | cell viability ([14]; 100 nM) [%] | cell viability ([14]; 1000 nM) [%] | cell viability ([14]; 10000 nM) [%] | relative viability EC50 [15] [µM]
1 | C[C@H](NC(=O)Cc1cc(F)cc(F)c1)C(=O)N[C@H](C(=O)OC(C)(C)C)c1ccccc1 [DAPT] | 0 | 0 | 0 | 0 | 105 | 100 | 112 | 91.1 | 103 | 106 | 106 | 105 | 97.7 | 101 | 98.3 | 108 | 103 | 105 | 102 | 108 | 109 | 116 | 99.8 | 96.1 | > 10 | > 10 | > 10 | > 10 |  |  |  |  |  |  | 
2 | Clc1ccc2c(NCCNc3ccnc4cc(Cl)ccc34)ccnc2c1 [NSC-5844] | 0 | 0 | 0 | 0.4 | 97.8 | 98.3 | 103 | 96.9 | 96.1 | 97.3 | 96.6 | 100 | 94.9 | 96.7 | 88 | 95.2 | 96.2 | 94.5 | 101 | 98.6 | 102 | 106 | 117 | 76.9 | > 10 | > 10 | > 10 | > 10 |  |  |  |  |  |  | 
3 | CC(C)(OCc1nn(Cc2ccccc2)c2ccccc12)C(=O)O [bindarit] | 0 |  | 0 | 0 | 99 | 95.5 | 106 | 95.1 | 104 |  |  |  |  |  | 102 | 105 | 100 | 107 | 91.4 | 104 | 101 | 108 | 102 | 96.8 | > 10 |  | > 10 | > 10 | 0 | 97.2 | 96.4 | 100 | 99.2 | 100 | > 10
4 | CC(C)(C)c1ccc(CN2CCN(C(c3ccccc3)c3ccc(Cl)cc3)CC2)cc1 (stereo not drawn) [buclizine] | 0 | 0 | 0 | 0.2 | 95.1 | 98.3 | 94.6 | 87.1 | 92.1 | 96.7 | 97.6 | 96.8 | 98.9 | 90.8 | 103 | 102 | 101 | 98.2 | 95.9 | 108 | 98.3 | 100 | 98.3 | 87.5 | > 10 | > 10 | > 10 | > 10 | 2.2 | 95.7 | 106 | 99.6 | 91.3 | 73.5 | 
